According to PubChem BioAssay (NCI):
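At the GI50, growth is halved. TGI: total growth inhibition.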

Assays:
Assay in all cases: NCI anticancer screen, dose series, 384-well format
786-0 renal = test system: 786-0 renal
A498 renal = test system: A498 renal
A549 NSCLC = test system: A549 NSCLC
ACHN renal = test system: ACHN renal
BT-549 breast = test system: BT-549 breast
CAKI-1 renal = test system: CAKI-1 renal
CCRF-CEM leukemia = test system: CCRF-CEM leukemia
COLO 205 colon = test system: COLO 205 colon
DU-145 prostate = test system: DU-145 prostate
EKVX NSCLC = test system: EKVX NSCLC
HCC-2998 colon = test system: HCC-2998 colon
HCT-116 colon = test system: HCT-116 colon
HCT-15 colon = test system: HCT-15 colon
HL-60(TB) leukemia = test system: HL-60(TB) leukemia
HOP-62 NSCLC = test system: HOP-62 NSCLC
HOP-92 NSCLC = test system: HOP-92 NSCLC
HS 578T breast = test system: HS 578T breast
HT29 colon = test system: HT29 colon
IGROV1 ovarian = test system: IGROV1 ovarian
K-562 leukemia = test system: K-562 leukemia
KM12 colon = test system: KM12 colon
LOX IMVI melanoma = test system: LOX IMVI melanoma
M14 melanoma = test system: M14 melanoma
MALME-3M melanoma = test system: MALME-3M melanoma
MCF7 breast = test system: MCF7 breast
MDA-MB-435 melanoma = test system: MDA-MB-435 melanoma
MDA-MB-468 breast = test system: MDA-MB-468 breast
MOLT-4 leukemia = test system: MOLT-4 leukemia
NCI-H226 lung = test system: NCI-H226 lung
NCI-H23 lung = test system: NCI-H23 lung
NCI-H322M lung = test system: NCI-H322M lung
NCI-H460 NSCLC = test system: NCI-H460 NSCLC
NCI-H522 lung = test system: NCI-H522 lung
NCI/ADR-RES ovarian = test system: NCI/ADR-RES ovarian
OVCAR-3 ovarian = test system: OVCAR-3 ovarian
OVCAR-4 ovarian = test system: OVCAR-4 ovarian
OVCAR-8 ovarian = test system: OVCAR-8 ovarian
PC-3 prostate = test system: PC-3 prostate
RPMI-8226 leukemia = test system: RPMI-8226 leukemia
RXF 393 renal = test system: RXF 393 renal
SF-268 CNS = test system: SF-268 CNS
SF-295 CNS = test system: SF-295 CNS
SF-539 CNS = test system: SF-539 CNS
SK-MEL-2 melanoma = test system: SK-MEL-2 melanoma
SK-MEL-28 melanoma = test system: SK-MEL-28 melanoma
SK-MEL-5 melanoma = test system: SK-MEL-5 melanoma
SK-OV-3 ovarian = test system: SK-OV-3 ovarian
SN12C renal = test system: SN12C renal
SNB-19 CNS = test system: SNB-19 CNS
SNB-75 CNS = test system: SNB-75 CNS
SW-620 colon = test system: SW-620 colon
TK-10 renal = test system: TK-10 renal
U251 glioblastoma = test system: U251 glioblastoma
UACC-257 melanoma = test system: UACC-257 melanoma
UACC-62 melanoma = test system: UACC-62 melanoma

Molecule `O=C(Nc1cccc(Br)c1)Oc1cccc2cccnc12` has a GI50 ([…]-0 renal) of 16.3 µM, a TGI (786-0 renal) of 33.9 µM and a GI50 (A498 renal) of 12.9 µM. For the same molecule, the TGI (A498 renal) was 26.3 µM, the GI50 (A549 NSCLC) was 13.8 µM and the TGI (A549 NSCLC) was 32.8 µM. It also gave a GI50 (ACHN renal) of 6.26 µM, a TGI (ACHN renal) of 27.1 µM and a GI50 (BT-549 breast) of 6.95 µM. The TGI (BT-549 breast) was 22 µM, the GI50 (CAKI-1 renal) was 2.35 µM and the TGI (CAKI-1 renal) was 4.98 µM. For the same molecule, the GI50 (CCRF-CEM leukemia) was 1.94 µM, the TGI (CCRF-CEM leukemia) was 3.43 µM and the GI50 (COLO 205 colon) was 2.61 µM. It also gave a TGI (COLO 205 colon) of 4.87 µM, a GI50 (DU-145 prostate) of 8.98 µM and a TGI (DU-145 prostate) of 36.7 µM. It also gave a GI50 (EKVX NSCLC) of 2.39 µM, a TGI (EKVX NSCLC) of 4.96 µM and a GI50 (HCC-2998 colon) of 16.2 µM. It also gave a TGI (HCC-2998 colon) of 30.1 µM, a GI50 (HCT-116 colon) of 2.4 µM and a TGI (HCT-116 colon) of 4.37 µM. It also gave a GI50 (HCT-15 colon) of 3.4 µM, a TGI (HCT-15 colon) of 9.07 µM and a GI50 (HL-60(TB) leukemia) of 1.73 µM. The TGI (HL-60(TB) leukemia) was 3.11 µM, the GI50 (HOP-62 NSCLC) was 7.61 µM and the TGI (HOP-62 NSCLC) was 18.8 µM. For the same molecule, the GI50 (HOP-92 NSCLC) was 4.02 µM, the TGI (HOP-92 NSCLC) was 10.5 µM and the GI50 (HS 578T breast) was 16.7 µM. The TGI (HS 578T breast) was 39.8 µM, the GI50 (HT29 colon) was 8.98 µM and the TGI (HT29 colon) was 21.2 µM. The GI50 (IGROV1 ovarian) was 2.23 µM, the TGI (IGROV1 ovarian) was 4.46 µM and the GI50 (K-562 leukemia) was 23.5 µM. For the same molecule, the TGI (K-562 leukemia) was 50.3 µM, the GI50 (KM12 colon) was 5.99 µM and the TGI (KM12 colon) was 18.1 µM. For the same molecule, the GI50 (LOX IMVI melanoma) was 2.95 µM, the TGI (LOX IMVI melanoma) was 10.8 µM and the GI50 (M14 melanoma) was 2.78 µM. For the same molecule, the TGI (M14 melanoma) was 6.06 µM, the GI50 (MALME-3M melanoma) was 4.16 µM and the TGI (MALME-3M melanoma) was 13.1 µM. It also gave a GI50 (MCF7 breast) of 2.23 µM, a TGI (MCF7 breast) of 4.47 µM and a GI50 (MDA-MB-435 melanoma) of 12.6 µM. It also gave a TGI (MDA-MB-435 melanoma) of 30.4 µM, a GI50 (MDA-MB-468 breast) of 2.82 µM and a TGI (MDA-MB-468 breast) of 4.48 µM. The GI50 (MOLT-4 leukemia) was 1.99 µM, the TGI (MOLT-4 leukemia) was 3.47 µM and the GI50 (NCI-H226 lung) was 1.74 µM. The TGI (NCI-H226 lung) was 3.42 µM, the GI50 (NCI-H23 lung) was 2.01 µM and the TGI (NCI-H23 lung) was 3.73 µM. The GI50 (NCI-H322M lung) was 17.5 µM, the TGI (NCI-H322M lung) was 43 µM and the GI50 (NCI-H460 NSCLC) was 2.76 µM. For the same molecule, the TGI (NCI-H460 NSCLC) was 6.44 µM, the GI50 (NCI-H522 lung) was 2.18 µM and the TGI (NCI-H522 lung) was 4.32 µM. For the same molecule, the GI50 (NCI/ADR-RES ovarian) was 2.43 µM, the TGI (NCI/ADR-RES ovarian) was 4.56 µM and the GI50 (OVCAR-3 ovarian) was 2.12 µM. For the same molecule, the TGI (OVCAR-3 ovarian) was 3.92 µM, the GI50 (OVCAR-4 ovarian) was 4.82 µM and the TGI (OVCAR-4 ovarian) was 14.9 µM. It also gave a GI50 (OVCAR-8 ovarian) of 2.56 µM, a TGI (OVCAR-8 ovarian) of 5.3 µM and a GI50 (PC-3 prostate) of 2.79 µM. It also gave a TGI (PC-3 prostate) of 5.48 µM, a GI50 (RPMI-8226 leukemia) of 2.26 µM and a TGI (RPMI-8226 leukemia) of 3.75 µM. It also gave a GI50 (RXF 393 renal) of 3.5 µM, a TGI (RXF 393 renal) of 7.85 µM and a GI50 (SF-268 CNS) of 3.69 µM. It also gave a TGI (SF-268 CNS) of 9.11 µM, a GI50 (SF-295 CNS) of 7.95 µM and a TGI (SF-295 CNS) of 23.6 µM. The GI50 (SF-539 CNS) was 5.79 µM, the TGI (SF-539 CNS) was 17.1 µM and the GI50 (SK-MEL-2 melanoma) was 2.8 µM. It also gave a TGI (SK-MEL-2 melanoma) of 5.41 µM, a GI50 (SK-MEL-28 melanoma) of 4.56 µM and a TGI (SK-MEL-28 melanoma) of 15.1 µM. It also gave a GI50 (SK-MEL-5 melanoma) of 5.81 µM, a TGI (SK-MEL-5 melanoma) of 17.9 µM and a GI50 (SK-OV-3 ovarian) of 17.9 µM. For the same molecule, the TGI (SK-OV-3 ovarian) was 34.3 µM, the GI50 (SN12C renal) was 4.46 µM and the TGI (SN12C renal) was 15.4 µM. For the same molecule, the GI50 (SNB-19 CNS) was 9.79 µM, the TGI (SNB-19 CNS) was 38.3 µM and the GI50 (SNB-75 CNS) was 4.08 µM. The TGI (SNB-75 CNS) was 12.9 µM, the GI50 (SW-620 colon) was 6.19 µM and the TGI (SW-620 colon) was 36.7 µM. The GI50 (TK-10 renal) was 6.51 µM, the TGI (TK-10 renal) was 33.5 µM and the GI50 (U251 glioblastoma) was 5.89 µM. For the same molecule, the TGI (U251 glioblastoma) was 17.4 µM, the GI50 (UACC-257 melanoma) was 2.28 µM and the TGI (UACC-257 melanoma) was 4.16 µM. It also gave a GI50 (UACC-62 melanoma) of 3.74 µM and a TGI (UACC-62 melanoma) of 9.42 µM.
